According to US20070189965A1, “Copper-complex isonitrile positron emission tomography (pet) imaging agent and method” (priority 2004, published 2007):

How the values were obtained:
[1] = Stability of I-131 Hippuran vials on storage: percent remaining bound; format: physicochemical
Method: As another example, I-131 Hippuran was prepared. The I-131 Hippuran was prepared as follows: 9 vials were prepared of I-131 Hippuran in solution with a radioactive concentration of MIBG of 1 mCi per vial. Each vial had 4 cc. The I-131 in seven of those vials was then stabilized and lyophilized according to the process described in this invention. One vial was frozen and maintained at a temperature of −10 degrees, and another vial was maintained room temperature. Room temperature was selected because Hippuran is thought to be stable at room temperature even in conjunction with a radioisotope. […]

[2] = Stability of I-131 MIBG vials on storage: percent of iodine remaining bound; format: physicochemical
Method: In order to establish the advantages of the novel process and resulting composition, a series of tests were run utilizing meta iodo benzyl guanidine (MIBG) in which the radionuclide I-131 was the iodine in the MlBG.
The MIBG was prepared as follows: eight vials were prepared of MIBG in solution with a radioactive concentration of MIBG of 1 mCi per vial. The MIBG in six of those vials were then stabilized and lyophilized according to the process described in this invention. One vial was frozen and maintained at a temperature of −10 degrees, and another vial was simply refrigerated at approximately 5 degrees.
Six vials were prepared according to the process in this invention in order to enable several to be reconstituted from the lyophilized state and their activity tallied.
The radioactive concentration of MIBG per vial was 1 mCi per vial.
One each of the vials was reconstituted after 24, 48, 72 and 168 hours respectively.

[3] = Lyophilized and stabilized per invention, stored at room temp., 0 hours, 1 mCi per vial

O=C(O)CNC(=O)c1ccccc1[131I] [I-131 Hippuran]
percent of Hippuran remaining bound to the 1-123 ([1]; Frozen −10°, 0 hours): 98% | percent of Hippuran remaining bound to the 1-123 ([1]; Frozen −10°, 24 hrs): 97.8% | percent of Hippuran remaining bound to the 1-123 ([1]; Frozen −10°, 48 hrs): 97% | percent of Hippuran remaining bound to the 1-123 ([1]; Frozen −10°, 72 hrs): 94% | percent of Hippuran remaining bound to the 1-123 ([1]; Frozen −10°, 96 hrs): 92.5% | percent of Hippuran remaining bound to the 1-123 ([1]; Frozen −10°, 120 hrs): 91 | percent of Hippuran remaining bound to the 1-123 [1, 3]: 98% | percent of Hippuran remaining bound to the 1-123 ([1]; Lyophilized and stabilized per invention, stored at room temp., 24 hrs): 98.4% | percent of Hippuran remaining bound to the 1-123 ([1]; Lyophilized and stabilized per invention, stored at room temp., 48 hrs): 98.6% | percent of Hippuran remaining bound to the 1-123 ([1]; Lyophilized and stabilized per invention, stored at room temp., 72 hrs): 98% | percent of Hippuran remaining bound to the 1-123 ([1]; Lyophilized and stabilized per invention, stored at room temp., 96 hrs): 98.4% | percent of Hippuran remaining bound to the 1-123 ([1]; Lyophilized and stabilized per invention, stored at room temp., 120 hrs): 98.5% | percent of Hippuran remaining bound to the 1-123 ([1]; Room Temp. (solution), 0 hours): 98% | percent of Hippuran remaining bound to the 1-123 ([1]; Room Temp. (solution), 24 hrs): 96% | percent of Hippuran remaining bound to the 1-123 ([1]; Room Temp. (solution), 48 hrs): 95% | percent of Hippuran remaining bound to the 1-123 ([1]; Room Temp. (solution), 72 hrs): 94.5% | percent of Hippuran remaining bound to the 1-123 ([1]; Room Temp. (solution), 96 hrs): 92% | percent of Hippuran remaining bound to the 1-123 ([1]; Room Temp. (solution), 120 hrs): 90%

N=C(N)NCc1cccc([131I])c1 [MIBG, meta iodo benzyl guanidine]
percent of iodine remaining bound to the MIBG ([2]; Frozen −10°, 0 hours): 96.3% | percent of iodine remaining bound to the MIBG ([2]; Frozen −10°, 24 hours): 94% | percent of iodine remaining bound to the MIBG ([2]; Frozen −10°, 48 hours): 91% | percent of iodine remaining bound to the MIBG ([2]; Frozen −10°, 72 hours): 84% | percent of iodine remaining bound to the MIBG ([2]; Frozen −10°, 168 hours (1 wk.)): 72% | percent of iodine remaining bound to the MIBG [2, 3]: 96.3% | percent of iodine remaining bound to the MIBG ([2]; Lyophilized and stabilized per invention, stored at room temp., 24 hours): 97% | percent of iodine remaining bound to the MIBG ([2]; Lyophilized and stabilized per invention, stored at room temp., 48 hours): 96.6% | percent of iodine remaining bound to the MIBG ([2]; Lyophilized and stabilized per invention, stored at room temp., 72 hours): 96.2% | percent of iodine remaining bound to the MIBG ([2]; Lyophilized and stabilized per invention, stored at room temp., 168 hours (1 wk.)): 95.9% | percent of iodine remaining bound to the MIBG ([2]; Refrigerated ˜+5°, 0 hours): 96.3% | percent of iodine remaining bound to the MIBG ([2]; Refrigerated ˜+5°, 24 hours): 92% | percent of iodine remaining bound to the MIBG ([2]; Refrigerated ˜+5°, 48 hours): 85% | percent of iodine remaining bound to the MIBG ([2]; Refrigerated ˜+5°, 72 hours): 77% | percent of iodine remaining bound to the MIBG ([2]; Refrigerated ˜+5°, 168 hours (1 wk.)): 55%
